Measurements from US20240366649A1, “4-ETHYNYL-3-HYDROXY-TETRAHYDROFURANYL-ADENINE PHOSPHORAMIDATES AND RELATED COMPOUNDS AND THEIR USE IN TREATING MEDICAL CONDITIONS” (ROME THERAPEUTICS, INC., priority 2021, published 2024).

Legend:
[1] = tested on: Esophageal cancer TE-1 cells; assay: Cancer cell viability assay with 3D cell colonies (CellTiter-Glo), TE-1; format: cell-based; details: Homo sapiens, 168 h; TE-1, 3D methylcellulose colonies, 7 days
Description: (§1) Cancer cell lines were cultured in the following media: • Ovarian cancer OVCAR-8 cells—RPMI media containing 10% FBS • Ovarian cancer SK-OV-3 cells—McCoy's 5a media containing 10% FBS • Ovarian cancer SW756 cells—L-15 (100% air)+10% FBS • Esophageal cancer TE-1 cells—RPMI-1640+10% FBS • Esophageal cancer KYSE-410 cells—RPMI-1640+5˜10% FBS • Esophageal cancer KYSE-70 cells—RPMI-1640+10% h.i.FBS. • Pharyngeal cancer FaDu cells—MEM+0.01 mM NEAA+10% FBS
(§2) Cell colony formation was tested using a 3D methylcellulose-based CellTiter-Glo (CTG) viability assay (Cat. No: G7573, Promega). Briefly, cells were inoculated into 96-well plates (at 1,500 cells per well) into a solution of 0.65% methylcellulose in growth media and incubated overnight at 37° C. in 5% CO2. The next day, serially diluted test compound (islatravir, 4′-ethynyl-2-fluoro-2′-deoxyadenosine) or positive control (cisplatin, Cat. No. 6J015A89, Qilu Pharma) were added at the indicated concentrations, and the cells were incubated for 7 days. On day seven, 100 μL of CTG reagent was added, and the plates were incubated at room temperature for 20 min. Luminescence was read on an Envision Multi Label Reader according to manufacturer's instructions. IC50 values were determined using the following calculation: […]

[2] = tested on: IFN-β production in PBMCs; assay: Decitabine-stimulated human PBMC assay; format: cell-based; details: anti-CD3/anti-CD28, 10 μM decitabine, 5 days
Description: EasySep buffer (32 mL, Stem Cell, cat. #20144) was used to dilute 8 mL of LRSC buffy coat (from fresh Leukopak) with gentle mixing. The diluted buffy coat (20 mL) was transferred into each of two SepMate 50 tubes, and the tubes were filled with 15 mL of Lyphoprep (Stem Cell, ct. #07851) density gradient. The SepMate tubes were then centrifuged at 1200G for 10 minutes at room temperature with the brake on. The top layer of supernatant was collected in SepMate tubes by quickly pouring it into a new 50 mL conical tube. The PBMCs were washed with EasySep buffer ×2 by centrifuging at 300G for 5 minutes. The cells were resuspended in 30 mL of EasySep and centrifuged at 100G for 5 minutes with the brake off, and the platelets were removed. The cells were then resuspended in 6 mL of 1×RBC lysis buffer (InvitroGen) and incubated at 37° C. for 5 minutes. Then, 25 mL of EasySep buffer was mixed into the tube and it was centrifuged at 300G for 5 minutes. The cells were resuspended in 10 mL of EasySep buffer and the cells were then counted with Cellometer (AO/PI). The PBMCs were resuspended in RPMI1640 (ThermoFisher)+10% FBS (HyClone)+p/s at 3×10^6/mL. The PBMCs (100 μL, 300 k PBMCs) were then seeded in a 96-well flat bottom microplate (Corning) that had been precoated with 100 μL of anti-CD3 antibody (10 μg/mL in PBS, Biolegend) or PBS at 4° C., one day before the assay was commenced. […]

[3] = tested on: interferon-stimulated gene (ISG) expression; assay: In vivo decitabine challenge model; parameters: species or system C57BL/6 mice; details: mice; decitabine i.p. 5 mg/kg and islatravir p.o. 0.6-6.0 mg/kg once a day Day 0 to Day 4; IFIT2 v. GAPDH
Description: Twenty 9-11 week old C57BL/6 mice were acclimated to the lab for at least 5 days. Islatravir (4′-ethynyl-2-fluoro-2′-deoxyadenosine) was prepared in a 0.5% methylcellulose solution for p.o. administration. Decitabine (Sigma) was dissolved in sterile PBS (pH 7.4) and dosed within 30 minutes of preparation of the solution. Doses of both islatravir and decitabine were administered once a day, every day from Day 0 to Day 4.
On Day 0, mice were split into four groups of five mice and given their first dose of decitabine (i.p., 5 mg/kg) and […]. Dosing groups were:
Decitabine and islatravir were administered daily from Day 0 to Day 4. All mice were euthanized 1 hour after the last dose administration on Day 4. Spleens, liver, and terminal colon were collected, along with plasma from each animal. The fold changes in interferon-stimulated gene (ISG) expression was calculated by first normalizing to GAPDH gene using the Delta CT method. The CT (gene of interest)−CT (reference gene) was calculated to generate a delta CT for all samples. The fold change was then calculated by taking the […](Delta CT(control)−Delta CT (experimental). The control in this example was the PBS control animal group. The Taqman duplex assay (Thermo Fisher 4331182 and 4448489) was used according to the manufacturer's instructions to determine levels of GAPDH v. IFIT2.

[4] = tested on: Pharyngeal cancer FaDu cells; assay: Cancer cell viability assay with 3D cell colonies (CellTiter-Glo), FaDu; format: cell-based; details: Homo sapiens, 168 h, 3D methylcellulose colonies, 7 days
Description: as §1, §2

IC50 [1]: ≤ 10 µM
IC50 [4]: 10 to 30 µM
Structure (SMILES): C#C[C@]1(CO)O[C@@H](n2cnc3c(N)nc(F)nc32)C[C@@H]1O [islatravir, 4′-ethynyl-2-fluoro-2′-deoxyadenosine]
production of IFN-β [2]: activated production of IFN-β
interferon-stimulated gene (ISG) response [3]: showed the change in ISG response
